How the values were obtained:
[1] = system: human umbilical vein endothelial cells (HUVECs); assay: Inhibitory effect on HUVEC cell growth (MTS/PES colorimetry); format: cell-based; details: cultured 5 days, MTS/PES absorbance 490 nm
Procedure: Using human umbilical vein endothelial cells (HUVECs), the effect of the fumagillin analog conjugates and the fumagillin analogs on cell growth was evaluated.
The HUVECs were added to M199 medium supplemented with 20% FBS, after which the cells were incubated at 37° C. under 5% CO2. 96-well plates were seeded at 5,000 cells/well in a total volume of 100 μL. The cells were left overnight to attach to the plate. Cells were subcultured a maximum of 15 times before being discarded.
To evaluate the inhibitory activity of the fumagillin conjugate or the fumagillin analog alone on the growth of HUVEC cells, the conjugate or fumagillin analog was dissolved in the required amount of 0.9% saline, vortexed briefly to wet and disperse the solids, followed by vortexing for a total of 30 min. […] The cells were treated with the conjugate solution or fumagillin analog solution at various concentrations ranging from 30 nM to 0.01 nM, and cultured for 5 days at 37° C.
Colorimetry was performed to determine the extent of cell growth by adding 20 μL of MTS/PES reagent to each well, incubation for 4 h at 37° C. followed by measuring the absorbance at 490 nm.

[2] = system: B16F10 tumor cells; assay: Tumor growth delay in B16F10 mouse melanoma; format: in vivo; details: IV, q3d × 4, BDF1 mice
Procedure: BDF1 female mice (N=6) with 1×10^6 B16F10 tumor cells positioned subcutaneous in the flank were treated with various fumagillin conjugates of the invention. Tumor growth was monitored in parallel with positive and negative controls of cyclophosphamide and saline respectively. Treatment began when tumors reached an average size of 80-120 mg and tumor volumes were measured two times per week until animals reached an endpoint tumor volume of 2 grams or 45 days, whichever came first. Conjugates were administered as solutions in saline intravenously at dose levels of 30-100 mg/kg (expressed as fumagillin analog equivalents) on a schedule of q3dx4. Treatment outcomes were assessed in terms of percent tumor growth delay (% TGD), (see FIG. 1) defined as the percent increase in median time to endpoint for mice treated with an agent compared to those treated with saline.

[3] = 80 mg/kg fumagillin analog equiv.
[4] = 60 mg/kg fumagillin analog equiv.

## CO[C@H]1[C@H](C2(C)O[C@@H]2CC=C(C)C)[C@]2(CC[C@H]1NC(=O)C13CCC(C(=O)NCCCOC(=O)[C@@H]4CCCN4)(CC1)CC3)CO2 (stereo partly shown) [Compound 49]
[1]; Homo sapiens, 120 h
  IC50: 100 to 300 nM

## CO[C@H]1[C@H](C2(C)O[C@@H]2CC=C(C)C)[C@]2(CC[C@H]1OC(=O)NC(=O)CSc1ccc(C(=O)O)cc1)CO2 (stereo partly shown) [Compound 34]
[1]; Homo sapiens, 120 h
  IC50: < 25 nM

## COc1ccc2c(ccn2C(=O)O[C@@H]2CC[C@]3(CO3)[C@@H](C3(C)O[C@@H]3CC=C(C)C)[C@@H]2OC)c1 (stereo partly shown) [Compound 23]
[1]; Homo sapiens, 120 h
  IC50: < 25 nM
[2]; [3]
  % TGD: 5-20%

## CO[C@H]1[C@H](C2(C)O[C@@H]2CC=C(C)C)[C@]2(CC[C@H]1OC(=O)NC(=O)CSc1cccc(NC(=O)CCC(=O)O)c1)CO2 (stereo partly shown) [Compound 52]
[1]; Homo sapiens, 120 h
  IC50: < 25 nM

## CO[C@H]1[C@H](C2(C)O[C@@H]2CC=C(C)C)[C@]2(CC[C@H]1OC(=O)N1CCN(C(C)=O)CC1)CO2 (stereo partly shown) [Compound 10]
[1]; Homo sapiens, 120 h
  IC50: < 25 nM
[2]; [4]
  % TGD: 20-50%

## COc1cc(/C=C/C(=O)N[C@@H]2CC[C@]3(CO3)[C@@H](C3(C)O[C@@H]3CC=C(C)C)[C@@H]2OC)cc(OC)c1OC (stereo partly shown) [Compound 37]
[1]; Homo sapiens, 120 h
  IC50: 25 to 100 nM

## CO[C@H]1[C@H](C2(C)O[C@@H]2CC=C(C)C)[C@]2(CC[C@H]1NC(=O)C13CCC(C(=O)NCCCO)(CC1)CC3)CO2 (stereo partly shown) [Compound 38]
[1]; Homo sapiens, 120 h
  IC50: 25 to 100 nM
[2]; [3]
  % TGD: 5-20%

## CO[C@H]1[C@H](C2(C)O[C@@H]2CC=C(C)C)[C@]2(CC[C@H]1NC(=O)C13CCC(C(=O)NCCCOC(=O)[C@H](C)N)(CC1)CC3)CO2 (stereo partly shown) [Compound 41]
[1]; Homo sapiens, 120 h
  IC50: 100 to 300 nM

## CO[C@H]1[C@H](C2(C)O[C@@H]2CC=C(C)C)[C@]2(CC[C@H]1OC(=O)/C=C/c1ccc(OCCN(C)C)cc1)CO2 (stereo partly shown) [Compound 36]
[1]; Homo sapiens, 120 h
  IC50: < 25 nM

## COc1cc(/C=C/C(=O)O[C@@H]2CC[C@]3(CO3)[C@@H](C3(C)O[C@@H]3CC=C(C)C)[C@@H]2OC)cc(OC)c1OC (stereo partly shown) [Compound 21]
[1]; Homo sapiens, 120 h
  IC50: < 25 nM

## CO[C@H]1[C@H](C2(C)O[C@@H]2CC=C(C)C)[C@]2(CC[C@H]1OC(=O)/C=C/c1ccccc1)CO2 (stereo partly shown) [Compound 13]
[1]; Homo sapiens, 120 h
  IC50: > 30 nM
[2]; [3]
  % TGD: 5-20%

## COc1ccc2[nH]cc(CCC(=O)O[C@@H]3CC[C@]4(CO4)[C@@H](C4(C)O[C@@H]4CC=C(C)C)[C@@H]3OC)c2c1 (stereo partly shown) [Compound 32]
[1]; Homo sapiens, 120 h
  IC50: < 25 nM
[2]; [3]
  % TGD: 20-50%

## CO[C@H]1[C@H](C2(C)O[C@@H]2CC=C(C)C)[C@]2(CC[C@H]1OC(=O)C(=O)N(C)OC)CO2 (stereo partly shown) [Compound 15]
[1]; Homo sapiens, 120 h
  IC50: > 30 nM
[2]; [3]
  % TGD: >50%

## CO[C@H]1[C@H](C2(C)O[C@@H]2CC=C(C)C)[C@]2(CC[C@H]1OC(=O)NC(=O)CCl)CO2 (stereo partly shown) [Compound 2]
[1]; Homo sapiens, 120 h
  IC50: < 25 nM

## CO[C@H]1[C@H](C2(C)O[C@@H]2CC=C(C)C)[C@]2(CC[C@H]1OC(=O)/C=C/c1ccc(O)cc1)CO2 (stereo partly shown) [Compound 4]
[1]; Homo sapiens, 120 h
  IC50: > 30 nM

## CO[C@H]1[C@H](C2(C)O[C@@H]2CC=C(C)C)[C@]2(CC[C@H]1OC(=O)/C=C/C=C/C=C/C=C/C(=O)O)CO2 (stereo partly shown) [Compound 24]
[1]; Homo sapiens, 120 h
  IC50: < 25 nM

## CO[C@H]1[C@H](C2(C)O[C@@H]2CC=C(C)C)[C@]2(CC[C@H]1OC(=O)NCCc1ccc(N)cc1)CO2 (stereo partly shown) [Compound 11]
[1]; Homo sapiens, 120 h
  IC50: < 25 nM
[2]; 65 mg/kg fumagillin analog equiv.
  % TGD: 20-50%

## COC(=O)c1ccc(C(=O)N[C@@H]2CC[C@]3(CO3)[C@@H](C3(C)O[C@@H]3CC=C(C)C)[C@@H]2OC)cc1 (stereo partly shown) [Compound 46]
[1]; Homo sapiens, 120 h
  IC50: < 25 nM

## CO[C@H]1[C@H](C2(C)O[C@@H]2CC=C(C)C)[C@]2(CC[C@H]1OC(=O)N1CCN(CCOC(=O)C3CCCN3C(=O)OCC3c4ccccc4-c4ccccc43)CC1)CO2 (stereo partly shown) [Compound 55]
[1]; Homo sapiens, 120 h
  IC50: < 25 nM

## CO[C@H]1[C@H](C2(C)O[C@@H]2CC=C(C)C)[C@]2(CC[C@H]1OC(=O)N1CC3CC1CN3)CO2 (stereo partly shown) [Compound 26]
[1]; Homo sapiens, 120 h
  IC50: < 25 nM
[2]; [4]
  % TGD: 5-20%

## COC(=O)C12CCC(C(=O)N[C@@H]3CC[C@]4(CO4)[C@@H](C4(C)O[C@@H]4CC=C(C)C)[C@@H]3OC)(CC1)CC2 (stereo partly shown) [Compound 43]
[1]; Homo sapiens, 120 h
  IC50: < 25 nM

## COC(=O)[C@@H](N)CSCC(=O)NC(=O)O[C@@H]1CC[C@]2(CO2)[C@@H](C2(C)O[C@@H]2CC=C(C)C)[C@@H]1OC (stereo partly shown) [Compound 14]
[1]
  IC50: < 25 nM

## CO[C@H]1[C@H](C2(C)O[C@@H]2CC=C(C)C)[C@]2(CC[C@H]1OC(=O)NC(=O)CSCCNC(=O)C1CCCN1C(=O)OCC1c3ccccc3-c3ccccc31)CO2 (stereo partly shown) [Compound 31]
[1]; Homo sapiens, 120 h
  IC50: < 25 nM
[2]; [3]
  % TGD: 20-50%

## CO[C@H]1[C@H](C2(C)O[C@@H]2CC=C(C)C)[C@]2(CC[C@H]1OC(=O)NCc1ccc(NC(C)=O)cc1)CO2 (stereo partly shown) [Compound 17]
[1]; Homo sapiens, 120 h
  IC50: < 25 nM

## COC1=CCC[C@]2(CO2)[C@H]1C1(C)O[C@@H]1CC=C(C)C (stereo partly shown) [Compound 27]
[1]; Homo sapiens, 120 h
  IC50: < 25 nM
[2]; 50 mg/kg fumagillin analog equiv.
  % TGD: 5-20%

## CO[C@H]1[C@H](C2(C)O[C@@H]2CC=C(C)C)[C@]2(CC[C@H]1NC(=O)CCl)CO2 (stereo partly shown) [Compound 44]
[1]; Homo sapiens, 120 h
  IC50: < 25 nM
[2]; [3]
  % TGD: 5-20%

## CO[C@H]1[C@H](C2(C)O[C@@H]2CC=C(C)C)[C@]2(CC[C@H]1OC(=O)NCCc1ccc(NC(C)=O)cc1)CO2 (stereo partly shown) [Compound 18]
[1]; Homo sapiens, 120 h
  IC50: < 25 nM
[2]; [3]
  % TGD: 5-20%

## CO[C@H]1[C@H](C2(C)O[C@@H]2CC=C(C)C)[C@]2(CC[C@H]1OC(=O)NC(=O)CSc1ccc(N)cc1)CO2 (stereo partly shown) [Compound 30]
[1]; Homo sapiens, 120 h
  IC50: < 25 nM

## COC(=O)[C@@H](N)CSCC(=O)NC(=O)O[C@@H]1CC[C@]2(CO2)[C@@H](C2(C)O[C@@H]2CC=C(C)C)[C@@H]1OC (stereo partly shown) [Compound 3]
[1]; Homo sapiens, 120 h
  IC50: < 25 nM

## CO[C@H]1[C@H](C2(C)O[C@@H]2CC=C(C)C)[C@]2(CC[C@H]1NC(=O)CSc1ccc(N)cc1)CO2 (stereo partly shown) [Compound 45]
[1]; Homo sapiens, 120 h
  IC50: < 25 nM

## CO[C@@H]1C(=O)CC[C@]2(CO2)[C@H]1C1(C)O[C@@H]1CC=C(C)C (stereo partly shown) [Compound 20]
[1]; Homo sapiens, 120 h
  IC50: < 25 nM

## CO[C@H]1[C@H](C2(C)O[C@@H]2CC=C(C)C)[C@]2(CC[C@H]1OC(=O)NCc1ccc(NC(=O)[C@H](C)N)cc1)CO2 (stereo partly shown) [Compound 50]
[1]; Homo sapiens, 120 h
  IC50: < 25 nM

## CCOC(=O)C1CCC(CNC(=O)O[C@@H]2CC[C@]3(CO3)[C@@H](C3(C)O[C@@H]3CC=C(C)C)[C@@H]2OC)CC1 (stereo partly shown) [Compound 29]
[1]; Homo sapiens, 120 h
  IC50: < 25 nM

## CO[C@H]1[C@H](C2(C)O[C@@H]2CC=C(C)C)[C@]2(CC[C@H]1OC(=O)N1CCN(CCOC(=O)CCC(=O)O)CC1)CO2 (stereo partly shown) [Compound 54]
[1]; Homo sapiens, 120 h
  IC50: < 25 nM

## CO[C@H]1[C@H](C2(C)O[C@@H]2CC=C(C)C)[C@]2(CC[C@H]1NC(=O)NCCc1ccc(N)cc1)CO2 (stereo partly shown) [Compound 57]
[1]; Homo sapiens, 120 h
  IC50: < 25 nM

## CO[C@H]1[C@H](C2(C)O[C@@H]2CC=C(C)C)[C@]2(CC[C@H]1NC(=O)C13CCC(C(=O)NCCCOC(=O)C4CCCN4)(CC1)CC3)CO2 (stereo partly shown) [Compound 42]
[1]; Homo sapiens, 120 h
  IC50: 100 to 300 nM

## COC(=O)C12CCC(C(=O)O[C@@H]3CC[C@]4(CO4)[C@@H](C4(C)O[C@@H]4CC=C(C)C)[C@@H]3OC)(CC1)CC2 (stereo partly shown) [Compound 1]
[1]; Homo sapiens, 120 h
  IC50: < 25 nM

## CO[C@H]1[C@H](C2(C)O[C@@H]2CC=C(C)C)[C@]2(CC[C@H]1NC(=O)NC(=O)CCl)CO2 (stereo partly shown) [Compound 28]
[1]; Homo sapiens, 120 h
  IC50: < 25 nM

## CO[C@H]1[C@H](C2(C)O[C@@H]2CC=C(C)C)[C@]2(CC[C@H]1OC(=O)NS(=O)(=O)N1CCN(C(C)=O)CC1)CO2 (stereo partly shown) [Compound 47]
[1]; Homo sapiens, 120 h
  IC50: < 25 nM

## CO[C@H]1[C@H](C2(C)O[C@@H]2CC=C(C)C)[C@]2(CC[C@H]1NC(=O)N1CCN(CCO)CC1)CO2 (stereo partly shown) [Compound 53]
[1]; Homo sapiens, 120 h
  IC50: 25 to 100 nM

## CO[C@H]1[C@H](C2(C)O[C@@H]2CC=C(C)C)[C@]2(CC[C@H]1NC(=O)c1ccc(C(=O)NCCCO)cc1)CO2 (stereo partly shown) [Compound 48]
[1]; Homo sapiens, 120 h
  IC50: < 25 nM

## CO[C@H]1[C@H](C2(C)O[C@@H]2CC=C(C)C)[C@]2(CC[C@H]1OC(=O)NCc1ccccc1)CO2 (stereo partly shown) [Compound 5]
[1]; Homo sapiens, 120 h
  IC50: < 25 nM

## CO[C@H]1[C@H](C2(C)O[C@@H]2CC=C(C)C)[C@]2(CC[C@H]1OC(=O)N1CCN(C(=O)[C@H](C)N)CC1)CO2 (stereo partly shown) [Compound 56]
[1]; Homo sapiens, 120 h
  IC50: < 25 nM

From patent US8399512B2, “Biocompatible biodegradable fumagillin analog conjugates” (Mersana Therapeutics, Inc., priority 2007, dated 2013)
